Where a name gives a salt, the structure may show the parent alone.
Experiments:
physchem [1] = type: physicochemical; conditions: thermodynamic from solid, visual
Protocol: An aliquot of 2.5 mg cholecalciferol and 2.5 mg cholecalciferol phosphate disodium salt prepared according to Example 1 were weighed into glass vials and 100 μL aliquots of the test solvents with different dielectric constants; water, MeOH:water (90:10), ethylene glycol, methanol (MeOH), propylene glycol (PG), ethanol (EtOH), poly(ethylene glycol) (PEG-400), and mineral oil were added until the sample was fully dissolved visually. A precise determination of the solubility was undertaken using high-performance liquid chromatography (HPLC). In the HPLC solubility studies an excess amount of cholecalciferol and cholecalciferol phosphate was added into 2 mL of each test solvent; water, MeOH:water (90:10), MeOH, and PG, EtOH and mineral oil. The solutions were left stirring overnight at room temperature, (RT), 22° C. The saturation of the solutions was confirmed by the visual appearance of crystals and the drug suspensions were filtered through 0.2 μm syringe filters, diluted, and the concentration of each sample was assessed using the HPLC method detailed below.

in vitro = in vitro ADME, porcine; conditions: for total penetration into / deposited in the skin: vehicle 100% PG, 0.25 mm porcine skin
Protocol: Donor solutions (2.5 mg/mL, 100,000 IU), which is an infinite dose, containing cholecalciferol and cholecalciferol phosphate disodium prepared according to Example 1, were compared to PG:EtOH (50:50) for cholecalciferol and 100% water for cholecalciferol phosphate.
The Franz diffusion cell was used to investigate the permeation of cholecalciferol and cholecalciferol phosphate through porcine skin. Fresh white adult porcine ears were obtained and any damaged ears were discarded. The ears were removed from the carcass after hair removal. The ears were washed with deionised water, the residual water on the skin surface was immediately removed by blotting with a tissue, visible hairs were trimmed carefully, and the ears were stored at −20° C. for no longer than 30 days until required. On the day of the experiment the skin was defrosted, and the subcutaneous fat was removed using a scalpel. The tissue was cut into the appropriate size sections (0.25 mm thick, 2.19±0.21 cm^2) to be mounted with the stratum corneum (SC) facing the donor compartment between donor and receiver compartments of Franz diffusion cells. The pieces of skins were sealed between the two compartments using parafilm, and 12 mm magnetic follows was placed into the receiver compartment. The receiver compartment in the Franz diffusion cell was filled with 100% PG for cholecalciferol; and a 1:1 mixture of PG: (MeOH:PBS ([…]), 90:10) for cholecalciferol phosphate (9.23±0.23 mL). The cell sealing was confirmed by cell inversion and monitoring solvent back diffusion. Sink conditions were maintained throughout the transport assays. The temperature of the Franz diffusion was maintained at 37° C. in a water bath, to set up the skin temperature 32° C. (Maddock, W. G. and Coller, F. A., ([…]) The role of the extremities in the dissipation of heat, American Journal of Physiology-Legacy Content, 106(3), 589-596). After 1 h equilibration at 37° C. in the water bath, 1 mL of receiver fluid was taken at time points 0 in 30 min and a fresh 100% PG was replaced to keep the volume content, and 1 mL of each formulation was applied in the donor compartment. After 24 h, the receiver fluid was collected and analysed by HPLC methods.
At the end of the transport studies, the Franz cells were dismantled, and the donor solution was collected into bottles containing 10 mL of extraction fluid; PG:EtOH (50:50) for cholecalciferol and MeOH:water (90:10) for cholecalciferol phosphate, by wiping the surface of the skin and inside of the donor compartment with two wet and then two dry cotton buds. The SC was removed from the epidermis by tape stripping. A 300 mg weight was used onto the skin to press the adhesive tape to apply defined pressure for 10 sec. A piece of tape that can cover the diffusion area was used to remove the SC. The first two pieces of tape were added into the donor solution, as the first 2 strips were considered as part of the applied formulation and its removal was part of the formulation wash off (Primo, F. L. et al., (2008) In vitro studies of cutaneous retention of magnetic nanoemulsion loaded with zinc phthalocyanine for synergic use in skin cancer treatment, Journal of Magnetism and Magnetic Materials, 320(14), e211-e214.; Sheth, N. V. et al., (1987) Measurement of the stratum corneum drug reservoir to predict the therapeutic efficacy of topical iododeoxyuridine for herpes simplex virus infection. Journal of investigative dermatology, 89(6), 598-602). The next 20 pieces of tapes were added into bottles containing 10 mL of extraction fluid. The epidermis was removed from the dermis and cut into small pieces by scalpels, placed in bottles containing 2 mL of extraction fluid. Furthermore, the dermis was cut into small pieces and was placed in bottles containing 2 mL of extraction fluid. […]

physchem [2] = type: physicochemical
Protocol: To validate the method of test agent recovery from the skin, solutions (1.0 mg/mL) of each vitamin D analogue were prepared in 100% PG. The precise concentrations in these samples were analysed by HPLC method described above. To assess the chemical stability of each test agent in the donor solutions used in the Franz cell experiments, 1.0 mg/mL of the samples prepared in 100% PG were incubated in a water bath at 37° C. for 24 h. In addition, to understand the chemical stability of each test agent in the extraction solvents used in the skin deposition studies, 1 mL of the drug sample in 100% PG was added into 10 mL of extraction fluid (MeOH for cholecalciferol, cholecalciferol phosphate acid, and MeOH:water, 90:10 for cholecalciferol phosphate disodium salt). Samples in PG (n=3) and samples in PG with the extraction fluid (n=3) were left in the water bath overnight at 37° C. and the sample concentration was analysed by the HPLC method described above. To assess whether the HPLC fluid had been impacted by any proteins that had leaked out of the skin, PG:water, 80:20 was added to donor and receiver chambers of porcine skin loaded Franz cells (n=3). A 5 mL sample of the receiver fluid was collected, and 25 μL of each test solution was added to this fluid and diluted to MeOH (1:1) and analysed by the HPLC method described previously. To verify the percentage of drug that could be recovered from the skin tissue, the skin sections were dermatomed (1 mm thickness) (n=3). The test solutions were spiked (50 μL) into a sample bottle containing the chopped dermatomed skin tissue. The samples containing the spiked drugs were left for 1 h for the drugs to absorb into the tissues. After the 1 h incubation period, 5 mL of extraction fluid (MeOH for cholecalciferol, cholecalciferol phosphate acid, and MeOH:water, 90:10 for cholecalciferol phosphate disodium salt) was added into each piece of the dermatomed skin tissue, then incubated in a shaking water bath for 1 h. The solutions were then tissue lysed by a tissue lyser for 40 min and homogenised by Ultra Turrax for 1 min and filtered using 0.45 μm syringe filters, centrifuged for 10 min at 13,000 rpm, and analysed by the HPLC method described above. In terms of cholecalciferol phosphate acid, after 1 h incubation and adding 5 mL extraction fluid, immediately the solutions with skin tissues were tissue lysed by a tissue lyser for 15 min. The solutions were then centrifuged for 10 min at 13,000 rpm and the supernatants were analysed by the HPLC method described above.

SMILES	solubility (physchem [1]; oil or lipid)	total recovery from the skin permeation experiments (in vitro; pig, 24 h, 2.5 mg/mL)	recovery at 24 h, 2.5 mg/mL (in vitro; pig, total recovery from the skin permeation experiments)	total penetration into / deposited in the skin (in vitro; 2.5 mg/mL, 24 h)	total penetration into the skin (in vitro; vehicle PG:EtOH (50:50), 24 h)	deposition in the SC (in vitro; vehicle PG, 24 h)	deposition in the epidermis (in vitro; vehicle PG, 24 h)	transdermal penetration, passed all the way through the skin (in vitro; vehicle PG, 24 h)	recovery at 0.091 mg/mL (physchem [2])	recovery at 24 h, 1 mg/mL (physchem [2])	solubility (physchem [1]; organic solvent or mixture)	solubility (physchem [1]; water)	deposition in the dermis compared with cholecalciferol (in vitro)	deposited in the skin (in vitro; pig, 24 h, 2.5 mg/mL)	deposition in the SC (in vitro; pig, 24 h, 2.5 mg/mL)	deposition in the epidermis (in vitro; pig, 24 h, 2.5 mg/mL)	skin deposition, times more than the cholecalciferol (in vitro; pig, 24 h, 2.5 mg/mL)	% Recovery, chemical stability with extraction fluid (physchem [2]; 0.091 mg/mL)	% Recovery, chemical stability without extraction fluid (physchem [2]; 24 h, 1 mg/mL)
C=C1CC[C@H](O)C/C1=C/C=C1\CCC[C@]2(C)[C@@H]([C@H](C)CCCC(C)C)CC[C@@H]12 [Cholecalciferol, cholecalciferol, reference compound]	> 25000 µg/mL	80%	61%	96.51±17.88 μg/cm^2	80.63±13.23 μg/cm^2	1.79±1.80 μg/cm^2	40.13±24.26 μg/cm^2	did not pass through the tissue	91.97 ± 0.63%	77.5 ± 7.05%	–	–	–	–	–	–	–	–	–
C=C1CC[C@H](OP(=O)(O)O)C/C1=C/C=C1\CCC[C@@]2(C)C1CC[C@@H]2[C@H](C)CCCC(C)C (stereo partly drawn) [Cholecalciferol phosphate disodium salt, cholecalciferol phosphate disodium salt]	–	–	–	189.99±29.10 μg/cm^2	–	–	–	50.50±6.40 μg/cm^2	–	–	< 2000 µg/mL	< 2500 µg/mL	not statistically different	29.59±9.44 μg/cm^2	50.15±8.20 μg/cm^2	113.96±18.79 μg/cm^2	1.97 times	95.18 ± 4.82%	81.87 ± 2.46%

— patent publication US12473310B2, “Vitamin D3 phosphate and pharmaceutically acceptable salts thereof, pharmaceutical compositions comprising the compound and methods for preparing the compound” (King's College London, priority 2020, dated 2025)
